Reference: patent US20090263472A1, “ENDOTHELIN RECEPTOR ANTAGONIST DERIVATIVES” (NICOX S.A., priority 2006, published 2009)

Key:
[1] = system: spontaneously hypertensive rats (SHR); test: Antihypertensive activity in vivo, tail-cuff systolic blood pressure; design: species or system rat; settings: for Δ SBP (Systolic Blood Pressure) 1 hr / Δ SBP (Systolic Blood Pressure) 3 hrs / Δ SBP (Systolic Blood Pressure) 6 hrs: p.o., delta vs own baseline, bosentan 100 mpk, compound of EX. 1 equimolar dose; for Δ SBP (Systolic Blood Pressure) 1 hr: 1 hr after treatment; for Δ SBP (Systolic Blood Pressure) 3 hrs: 3 hrs after treatment; for Δ SBP (Systolic Blood Pressure) 6 hrs: 6 hrs after treatment
Description: Ten days prior to the beginning of the experiment, spontaneously hypertensive rats (SHR) are trained daily for the measurement of blood pressure by the tail-cuff method ([…] et Al.; Am. J. Physiol. Heart Circ. Physiol 286: […]-[…], 2004) using model BP-2000 Blood Pressure Analysis System from U.Basile (Comerio, VA Italy). Each animal is placed in individuals cages into a warming cupboard (37° C.) for 15 minutes. […] Average of blood pressure values from individual rats are evaluated from 3/5 different consecutive measurements. […] The data are processed both as the absolute value or as a delta between the absolute value and its own baseline.

[2] = system: isolated rabbit thoracic aorta preparations; test: Studies on vascular tone: vasorelaxation of noradrenaline-precontracted aortic rings; type: cell-based; settings: for relaxation of precontracted aortic rings (in words): cumulative concentration-response curve, noradrenaline 1 μM precontraction

Row | EC50 ([2]; concentration producing 50% of maximum relaxation, aortic rings contracted with noradrenaline 1 μM, functional endothelium, read-out: EC50 (μM) ± sem) | EC50 (μM) ± sem ([2]; concentration producing 50% of maximum relaxation, aortic rings contracted with noradrenaline 1 μM, functional endothelium) | Compound | reduction in blood pressure (in words) ([1]; oral administration) | Δ SBP (Systolic Blood Pressure) 1 hr [1] | Δ SBP (Systolic Blood Pressure) 3 hrs [1] | Δ SBP (Systolic Blood Pressure) 6 hrs [1] | relaxation of precontracted aortic rings (in words) [2]
1 | 33.9 ± 2.5 µM |  | COc1ccccc1Oc1c(NS(=O)(=O)c2ccc(C(C)(C)C)cc2)nc(-c2ncccn2)nc1OCCOC(=O)CCCO[N+](=O)[O-] [Compound of EX. 1] | able to induce a clear reduction in blood pressure | −8 mmHg | −18 mmHg | −6 mmHg | able to induce relaxation in a concentration-dependent manner
2 |  | no effect | COc1ccccc1Oc1c(NS(=O)(=O)c2ccc(C(C)(C)C)cc2)nc(-c2ncccn2)nc1OCCO [Bosentan, reference compound] |  | 0 mmHg | 6 mmHg | −1 mmHg | did not produce relaxation at any of the concentration tested
